Consider 2 compounds from patent publication US20160354443A1, “Replacement Therapy for Natriuretic Peptide Deficiencies” (priority 2014, published 2016).

Positions of bridges follow the written chain, without caps; N, C: chain ends. Non-standard residues stand in square brackets, D forms with d. Residues, ends and D or L forms follow the SMILES beside them. *: point of attachment. X1 = N=C(N)NCCC[C@H]1C(=O)N[C@@H](C(N)=O)CN1*; dNle = CCCC[C@@H](N)C(=O)O; Heptanoyl = CCCCCCC(=O)*

The conditions of data set [1]: Potter et al. 2009; cited from earlier work.
Data set [2] in a line: Human clinical trial, subcutaneous formulation: half life. Particulars: in vivo, sc, subcutaneously administered formulation. The method, then:
In a human clinical trial of a subcutaneously administered formulation in which the mimetic of formula IV was the active pharmaceutical ingredient, the half life of the mimetic of formula IV was determined to be approximately 3 hours. The mimetic of formula IV lead to a mean peak increase in plasma cGMP concentration of 1.7 ng/mL at a dose of 0.3 μg/kg of the mimetic of formula IV as a single, subcutaneous injection.

The target in the next data set is T1, human NPRA (Homo sapiens, UniProt P16066).
T1 sequence (P16066 33-1061): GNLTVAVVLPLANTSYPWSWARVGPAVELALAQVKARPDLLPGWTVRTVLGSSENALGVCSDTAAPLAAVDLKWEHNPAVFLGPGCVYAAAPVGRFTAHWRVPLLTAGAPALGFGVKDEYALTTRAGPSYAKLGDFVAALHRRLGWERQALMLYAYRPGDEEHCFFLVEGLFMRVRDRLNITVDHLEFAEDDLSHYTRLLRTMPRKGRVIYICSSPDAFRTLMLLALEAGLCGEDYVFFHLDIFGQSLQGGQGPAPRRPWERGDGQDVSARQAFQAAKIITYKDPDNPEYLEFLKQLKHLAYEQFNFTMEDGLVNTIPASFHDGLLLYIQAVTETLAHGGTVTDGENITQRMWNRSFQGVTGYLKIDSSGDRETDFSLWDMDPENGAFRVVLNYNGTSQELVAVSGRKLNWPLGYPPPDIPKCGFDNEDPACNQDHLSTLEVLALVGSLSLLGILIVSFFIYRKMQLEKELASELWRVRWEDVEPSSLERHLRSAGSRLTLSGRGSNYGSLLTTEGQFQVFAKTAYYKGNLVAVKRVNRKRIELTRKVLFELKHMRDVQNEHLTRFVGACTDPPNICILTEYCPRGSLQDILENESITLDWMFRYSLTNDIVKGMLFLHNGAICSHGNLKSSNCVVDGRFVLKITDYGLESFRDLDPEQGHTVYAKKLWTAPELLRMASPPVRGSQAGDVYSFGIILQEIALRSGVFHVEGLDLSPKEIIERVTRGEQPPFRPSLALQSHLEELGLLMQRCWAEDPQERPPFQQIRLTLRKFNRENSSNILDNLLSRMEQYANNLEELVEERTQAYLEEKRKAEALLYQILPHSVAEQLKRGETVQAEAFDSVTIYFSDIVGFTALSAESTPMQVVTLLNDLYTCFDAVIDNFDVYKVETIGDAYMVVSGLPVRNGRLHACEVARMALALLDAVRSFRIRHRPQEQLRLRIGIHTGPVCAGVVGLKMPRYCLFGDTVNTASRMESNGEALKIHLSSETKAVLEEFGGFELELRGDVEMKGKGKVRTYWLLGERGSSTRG
In words: cGMP generation in HEK cells expressing human NPRA. Particulars: mean ± SD. It counts as cell-based.

The target in the next data set is T2, hNPRB (human NPRB) (Homo sapiens, UniProt P20594).
T2 construct: expressed in transfected cells; host or cells: HEK cell line
T2 sequence (P20594 23-1047): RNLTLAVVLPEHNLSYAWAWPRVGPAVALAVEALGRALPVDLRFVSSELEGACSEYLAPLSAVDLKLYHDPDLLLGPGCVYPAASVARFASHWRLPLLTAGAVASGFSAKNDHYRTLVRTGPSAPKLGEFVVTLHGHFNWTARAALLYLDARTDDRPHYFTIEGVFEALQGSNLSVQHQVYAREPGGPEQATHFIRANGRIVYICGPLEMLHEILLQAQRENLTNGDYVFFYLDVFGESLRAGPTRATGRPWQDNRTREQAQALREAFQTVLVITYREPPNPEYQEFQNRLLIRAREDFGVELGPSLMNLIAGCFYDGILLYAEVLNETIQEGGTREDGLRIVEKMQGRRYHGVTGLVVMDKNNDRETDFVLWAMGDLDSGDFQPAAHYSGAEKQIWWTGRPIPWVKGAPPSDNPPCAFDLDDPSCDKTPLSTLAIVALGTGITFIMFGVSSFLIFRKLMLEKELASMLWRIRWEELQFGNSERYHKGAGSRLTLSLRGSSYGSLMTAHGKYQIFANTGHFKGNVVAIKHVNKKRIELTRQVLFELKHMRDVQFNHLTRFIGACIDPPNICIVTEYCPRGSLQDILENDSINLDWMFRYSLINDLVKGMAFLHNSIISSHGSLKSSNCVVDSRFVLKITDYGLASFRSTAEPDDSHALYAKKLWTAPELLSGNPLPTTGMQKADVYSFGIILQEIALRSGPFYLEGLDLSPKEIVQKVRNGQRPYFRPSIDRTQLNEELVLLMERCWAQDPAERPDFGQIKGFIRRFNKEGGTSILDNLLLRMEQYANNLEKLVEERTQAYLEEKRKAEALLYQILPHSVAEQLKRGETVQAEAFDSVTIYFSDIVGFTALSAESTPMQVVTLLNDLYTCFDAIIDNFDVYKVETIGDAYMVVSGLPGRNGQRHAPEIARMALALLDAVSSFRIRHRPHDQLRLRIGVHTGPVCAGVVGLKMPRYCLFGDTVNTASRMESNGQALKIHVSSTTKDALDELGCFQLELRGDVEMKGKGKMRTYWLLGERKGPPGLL
In words: NPRB functional assay (cGMP generation) in HEK cell line. The data set is classed as cell-based. To be noted: HEK293, mean ± SD, read-out: hNPRB Function (cGMP) Emax (%).

The next data set deals with plasma cGMP. The experiment in a line: Safety study in healthy volunteers: pharmacodynamic parameters (plasma cGMP). The data set is classed as in vivo, human. Particulars: mean ± SD. As to the method: (§1) In a safety study, the mimetic of formula IV was administered to healthy volunteers. Doses of 0.1, 0.3, 0.7 and 1.0 μg/kg of the mimetic of formula IV were administered.
(§2) Kel is the apparent terminal elimination rate constant, calculated by linear regression of the terminal linear portion of the log concentration versus the time curve. The plasma cGMP concentrations returned to baseline levels by approximately 8 hours after dosing following 0.7 μg/kg and 1.0 μg/kg of the mimetic of formula IV.

Test in data set [3]: as above
The data set is classed as in vivo, human. Particulars: human, in vivo, mean ± SD, read-out: t½ (converted). The method, then:
as §1, §2

Another data set has as its target T3, rat NPRA (Rattus norvegicus, UniProt P18910).
T3 construct: expressed in transfected cells; host or cells: HEK cell line
T3 sequence (P18910 29-1057): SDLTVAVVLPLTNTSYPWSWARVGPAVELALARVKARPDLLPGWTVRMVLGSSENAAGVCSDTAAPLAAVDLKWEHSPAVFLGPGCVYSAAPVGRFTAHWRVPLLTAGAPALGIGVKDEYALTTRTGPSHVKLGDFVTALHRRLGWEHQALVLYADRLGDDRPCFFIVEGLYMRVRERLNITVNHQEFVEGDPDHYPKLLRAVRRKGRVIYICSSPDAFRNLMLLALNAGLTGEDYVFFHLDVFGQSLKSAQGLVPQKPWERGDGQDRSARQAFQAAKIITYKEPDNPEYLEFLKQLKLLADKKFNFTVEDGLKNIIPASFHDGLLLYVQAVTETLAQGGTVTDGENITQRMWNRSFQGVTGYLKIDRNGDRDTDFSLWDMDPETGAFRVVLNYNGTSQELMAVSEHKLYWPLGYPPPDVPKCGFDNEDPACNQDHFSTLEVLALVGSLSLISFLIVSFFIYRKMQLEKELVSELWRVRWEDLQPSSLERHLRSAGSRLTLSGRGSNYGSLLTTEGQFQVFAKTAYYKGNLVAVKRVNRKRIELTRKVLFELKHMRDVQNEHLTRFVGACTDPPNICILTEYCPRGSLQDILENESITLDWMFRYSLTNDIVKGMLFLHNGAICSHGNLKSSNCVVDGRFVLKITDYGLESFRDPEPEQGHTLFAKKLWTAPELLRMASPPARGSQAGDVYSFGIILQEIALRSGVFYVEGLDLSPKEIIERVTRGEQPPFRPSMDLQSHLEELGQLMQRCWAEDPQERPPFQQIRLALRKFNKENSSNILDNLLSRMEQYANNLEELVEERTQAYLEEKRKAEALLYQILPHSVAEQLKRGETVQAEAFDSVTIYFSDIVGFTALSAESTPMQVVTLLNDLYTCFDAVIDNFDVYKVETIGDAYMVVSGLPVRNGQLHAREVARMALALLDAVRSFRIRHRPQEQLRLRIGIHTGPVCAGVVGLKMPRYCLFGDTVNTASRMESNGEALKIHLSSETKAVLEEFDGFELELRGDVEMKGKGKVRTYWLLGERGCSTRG
In words: cGMP generation in HEK cells expressing rat NPRA. It counts as cell-based. To be noted: mean ± SD.

Procedure for human NPRA: Functional evaluation of natriuretic peptide mimetics was performed by measuring the accumulation of intracellular cGMP in HEK-293 cells that express recombinant hNPR-A. HEK-NPRA cells were harvested by washing and centrifugation in Cell Dissociation Buffer (Gibco, Life Technologies). Pelleted cells were resuspended in Hank's Balanced Salt Solution (HBSS) containing 10 mM Hepes (pH 7.4), 5 mM MgCl2, 200 mM L-glutamine, 1 mM 1,10-phenanthroline and BSA (0.5 mg/mL). Following centrifugation, cells were resuspended in the above buffer supplemented with 0.5 mM 3-isobutyl-1-methylxanthine (IBMX). […] The reaction was terminated by lysis of the cells with temperature shock. […] Accumulation of cGMP was measured using the cGMP Flashplate RIA (Perkin-Elmer). Data analysis and EC50 values were determined by using nonlinear regression analysis with GraphPad Prism® software.

As to `CC[C@H](C)[C@@H]1NC(=O)[C@H](CCCNC(=N)N)NC(=O)[C@H](CC(=O)O)NC(=O)[C@H](CC(C)C)NC(=O)[C@H](CCCCN)NC(=O)[C@H](CC(C)C)NC(=O)CNC(=O)[C@H](Cc2ccccc2)NC(=O)[C@@H](NC(=O)CNC(=O)[C@H](CCCCN)NC(=O)[C@H](CO)NC(=O)[C@H](CC(C)C)NC(=O)CN)CSSC[C@@H](C(=O)O)NC(=O)CNC(=O)[C@H](CC(C)C)NC(=O)CNC(=O)[C@H](CO)NC(=O)[C@H](CCSC)NC(=O)[C@H](CO)NC(=O)CNC1=O` [hCNP], the “reported human plasma half-life” value in data set [1] is on record as “about 2 minutes”.

For the compound `CCCCCCC(=O)N[C@H]1CSSC[C@@H](C(=O)N[C@@H](Cc2ccc(O)cc2)C(=O)N2C[C@H](C(N)=O)NC(=O)[C@@H]2CCCNC(=N)N)NC(=O)[C@H](CO)NC(=O)[C@H]([C@@H](C)CC)NC(=O)[C@H](CCCNC(=N)N)NC(=O)[C@H](CC(=O)O)NC(=O)[C@@H](CCCC)NC(=O)[C@H](CCCNC(=N)N)NC(=O)CNC(=O)[C@@H](C)NC(=O)[C@H](Cc2ccccc2)NC(=O)[C@H](Cc2c[nH]cn2)NC1=O` [mimetic of formula IV] (Heptanoyl-CHF[dA]GR[dNle]DRISCY-X1; disulfide 1-12), the half-life was about 3 h in data set [2], 3.03 ± 0.345 h in data set [3] (0.7 ug/kg) and 2.98 ± 3.61 h in data set [3] (1 ug/kg). For the same compound, the Emax at human NPRA (HEK293, hNPRA, read-out: hNPRA Function (cGMP) Emax (%)) amounted to 94 ± 8%; on hNPRB (human NPRB), 1 ± 1%. The “Function (cGMP) Emax (% of ANP response)” value on human NPRA (human NPRA) was 94 ± 8 % of ANP response; on rat NPRA, 98 ± 7 % of ANP response. Also, the “Kel (apparent terminal elimination rate constant)” value with plasma cGMP (dose 0.7 μg/kg) amounted to 0.231 ± 0.025 h⁻¹; with plasma cGMP (dose 1.0 μg/kg) it was 1.05 ± 1.22 h⁻¹.

The term Emax denotes the maximal effect, on the per cent scale that the assay sets.
